Like-named read-outs stand apart in the source and are kept apart here.
Tests used:
[1] = biological target: MST1 (Homo sapiens (Human), UniProt Q13043); experiment: MST1 biochemical LanthaScreen Eu Kinase Binding Assay
Experimental: (§1) MST1 and MST2 biochemical LanthaScreen Eu Kinase Binding Assay was based on the binding and displacement of kinase tracer to the kinase of interest. Compounds in 1000×DMSO stock solution was dispensed using automated dispensing system (Labcyte) to 384 well Corning Microplate at 15 nL, 5 uL of Kinase buffer A was added to each well. Plates were shaken and incubated for 1 min to ensure well dissolution of compounds.

[2] = biological target: MST2 (Homo sapiens (Human), UniProt Q13188); experiment: MST2 biochemical LanthaScreen Eu Kinase Binding Assay
Chain of MST2 (Q13188 whole entry): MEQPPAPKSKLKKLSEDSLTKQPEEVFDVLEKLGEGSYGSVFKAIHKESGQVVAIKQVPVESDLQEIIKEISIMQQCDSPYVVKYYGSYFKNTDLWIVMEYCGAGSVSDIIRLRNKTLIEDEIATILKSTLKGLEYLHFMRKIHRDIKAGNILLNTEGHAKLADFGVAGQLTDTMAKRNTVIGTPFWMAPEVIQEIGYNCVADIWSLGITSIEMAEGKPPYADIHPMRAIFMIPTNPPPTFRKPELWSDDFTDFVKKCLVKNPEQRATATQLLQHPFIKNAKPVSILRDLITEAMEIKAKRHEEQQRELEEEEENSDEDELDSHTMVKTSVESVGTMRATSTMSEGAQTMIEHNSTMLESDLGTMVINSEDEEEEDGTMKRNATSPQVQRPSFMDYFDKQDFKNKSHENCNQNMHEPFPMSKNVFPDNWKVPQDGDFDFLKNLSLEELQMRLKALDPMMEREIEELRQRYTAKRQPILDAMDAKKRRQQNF
Experimental: as §1

[3] = read-out: Kinase Binding assay-MST1 IC50
[4] = read-out: Kinase Binding assay-MST2 IC50

Chain of MST1 (Q13043 whole entry): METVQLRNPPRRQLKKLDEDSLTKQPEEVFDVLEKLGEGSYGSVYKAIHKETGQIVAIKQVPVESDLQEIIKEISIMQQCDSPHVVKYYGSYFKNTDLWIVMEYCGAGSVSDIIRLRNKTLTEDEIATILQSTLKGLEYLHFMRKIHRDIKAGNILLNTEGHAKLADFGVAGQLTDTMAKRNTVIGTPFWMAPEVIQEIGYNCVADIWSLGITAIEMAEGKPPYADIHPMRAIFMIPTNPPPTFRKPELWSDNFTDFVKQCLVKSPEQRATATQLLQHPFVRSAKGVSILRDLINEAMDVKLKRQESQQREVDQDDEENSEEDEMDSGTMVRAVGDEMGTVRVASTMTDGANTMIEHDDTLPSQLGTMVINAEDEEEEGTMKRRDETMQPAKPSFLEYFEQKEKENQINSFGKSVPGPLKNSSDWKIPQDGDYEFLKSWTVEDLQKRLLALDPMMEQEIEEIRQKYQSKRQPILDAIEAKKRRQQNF

CCOc1cc2ncc(C#N)c(Nc3ccc(OCc4ccn(C)n4)c(Cl)c3)c2cc1NC(=O)CCCN(C)C [Example 67]
IC50 [1, 3]: 100 to 1000 nM
IC50 [2]: 100 to 1000 nM

CCOc1cc2ncc(C#N)c(Nc3ccc(OCc4ccccc4)c(Cl)c3)c2cc1NC(=O)CCCN(C)C [Example 46]
IC50 [1, 3]: 100 to 1000 nM

CCOc1cc2ncc(C#N)c(Nc3ccc(OCc4ccc(C)cn4)c(Cl)c3)c2cc1NC(=O)CCCN(C)C [Example 11]
IC50 [1, 3]: 100 to 1000 nM
IC50 [2, 4]: < 100 nM

CCOc1cc2ncc(C#N)c(Nc3ccc(OCc4cccnc4)cc3)c2cc1NC(=O)CCCN(C)C [Example 51]
IC50 [1, 3]: 1000 to 10000 nM

CCOc1cc2ncc(C#N)c(Nc3ccc(OCc4ccccn4)c(Cl)c3)c2cc1NC(=O)CCCOC [Example 102]
IC50 [1, 3]: 100 to 1000 nM
IC50 [2]: 100 to 1000 nM

CCOc1cc2ncc(C#N)c(Nc3cc(C)c(OCc4ncccc4C)cc3C)c2cc1NC(=O)CCCN(C)C [Example 34]
IC50 [1, 3]: < 100 nM
IC50 [2, 4]: < 100 nM

CCOc1cc2ncc(C#N)c(Nc3cc(Cl)c(OCc4ncccc4C)cc3Br)c2cc1NC(=O)CCCN(C)C [Example 79]
IC50 [1, 3]: < 100 nM
IC50 [2, 4]: < 100 nM

CCOc1cc2ncc(C#N)c(Nc3ccc(OCc4ncccc4C)c(Br)c3)c2cc1NC(=O)CCCN(C)C [Example 24]
IC50 [1, 3]: < 100 nM
IC50 [2, 4]: < 100 nM

CCOc1cc2ncc(C#N)c(Nc3ccc(OCc4ncccc4C#N)c(Cl)c3)c2cc1NC(=O)CCCN(C)C [Example 19]
IC50 [1, 3]: < 100 nM
IC50 [2, 4]: < 100 nM

CCOc1cc2ncc(C#N)c(Nc3ccc(OCc4ncccc4C)cc3Br)c2cc1NC(=O)CCCN(C)C [Example 74]
IC50 [1, 3]: < 100 nM
IC50 [2, 4]: < 100 nM

CCOc1cc2ncc(C#N)c(Nc3ccc(Cl)cc3)c2cc1NC(C)=O [Example 122]
IC50 [1, 3]: 1000 to 10000 nM

CCOc1cc2ncc(C#N)c(Nc3ccc(OCc4ncccc4CO)cc3Cl)c2cc1NC(=O)CCCN(C)C [Example 83]
IC50 [1, 3]: < 100 nM
IC50 [2, 4]: < 100 nM

CCOc1cc2ncc(C#N)c(Nc3ccc(OCCCn4cncn4)c(Cl)c3)c2cc1NC(=O)CCCN(C)C [Example 61]
IC50 [1, 3]: 1000 to 10000 nM

CCOc1cc2ncc(C#N)c(Nc3ccc(OCc4ncccc4C(=O)OC)cc3Cl)c2cc1NC(=O)CCCN(C)C [Example 82]
IC50 [1, 3]: 100 to 1000 nM
IC50 [2]: 100 to 1000 nM

CCOc1cc2ncc(C#N)c(Nc3ccc(NCc4ccccn4)c(Cl)c3)c2cc1NC(=O)CCCN(C)C [Example 111, N-(4-(3-chloro-4-(pyridin-2-ylmethylamino)phenylamino)-3-cyano-7-ethoxyquinolin-6-yl)-4-(dimethylamino)butanamide]
IC50 [1, 3]: 100 to 1000 nM

CCOc1cc2ncc(C#N)c(Nc3ccc(OCc4ncccc4C)cc3Cl)c2cc1NC(=O)CCCN(C)C [Example 25, N-(4-((2-chloro-4-((3-methyl-pyridin-2-yl)methoxy)phenyl)amino)-3-cyano-7-ethoxyquinolin-6-yl)-4-(dimethylamino)butanamide]
IC50 [1, 3]: < 100 nM
IC50 [2, 4]: < 100 nM

CCOc1cc2ncc(C#N)c(Nc3ccc(OCCc4c(C)noc4C)c(Cl)c3)c2cc1NC(=O)CCCN(C)C [Example 66]
IC50 [1, 3]: 100 to 1000 nM

CCOc1cc2ncc(C#N)c(Nc3ccc(OCc4ncccc4C)cc3C)c2cc1NC(=O)CCCN(C)C [Example 31]
IC50 [1, 3]: < 100 nM
IC50 [2, 4]: < 100 nM

CCOc1cc2ncc(C#N)c(Nc3ccccc3F)c2cc1NC(C)=O [Example 118]
IC50 [1, 3]: 100 to 1000 nM

CCOc1cc2ncc(C#N)c(Nc3ccc(OCc4cc(C#N)ccn4)c(Cl)c3)c2cc1NC(=O)CCCN(C)C [Example 36]
IC50 [1, 3]: 100 to 1000 nM
IC50 [2]: 100 to 1000 nM

CCOc1cc2ncc(C#N)c(Nc3ccc(OCc4ccc(F)cn4)c(Cl)c3)c2cc1NC(=O)CCCN(C)C [Example 13]
IC50 [1]: 100 to 1000 nM
IC50 [2]: 100 to 1000 nM

CCOc1cc2ncc(C#N)c(Nc3ccc(OC)c(Cl)c3)c2cc1NC(=O)CCCN(C)C [Example 138]
IC50 [1, 3]: 1000 to 10000 nM

CCOc1cc2ncc(C#N)c(Nc3ccc(OCc4cccc(Br)n4)c(Cl)c3)c2cc1NC(=O)CCCN(C)C [Example 3]
IC50 [1, 3]: < 100 nM
IC50 [2, 4]: < 100 nM

CCOc1cc2ncc(C#N)c(Nc3ccc(OCc4ncccc4C)cc3C#N)c2cc1NC(=O)CCCN(C)C [Example 30]
IC50 [1, 3]: < 100 nM
IC50 [2]: 100 to 1000 nM

CCOc1cc2ncc(C#N)c(Nc3ccc(OC)cc3)c2cc1NC(C)=O [Example 121]
IC50 [1, 3]: 100 to 1000 nM

CCOc1cc2ncc(C#N)c(Nc3ccc(OCc4ccccn4)c(Cl)c3)c2cc1NC(=O)CCN(C)C [Example 96]
IC50 [1, 3]: < 100 nM

CCOc1cc2ncc(C#N)c(Nc3ccc(NC(C)c4ccccn4)c(Cl)c3)c2cc1NC(=O)CCCN(C)C (stereo not drawn) [Example 112]
IC50 [1, 3]: 1000 to 10000 nM

CCOc1cc2ncc(C#N)c(Nc3cccc(Cl)c3)c2cc1NC(=O)CCCN(C)C [Example 137, N-(4-(3-chlorophenylamino)-3-cyano-7-ethoxyquinolin-6-yl)-4-(dimethylamino)butanamide]
IC50 [1, 3]: 1000 to 10000 nM

CCOc1cc2ncnc(Nc3ccc(OCc4ncccc4C)cc3Cl)c2cc1NC(=O)CCCN(C)C [Example 146, N-(4-(2-chloro-4-((3-methylpyridin-2-yl)methoxy)phenylamino)-7-ethoxyquinazolin-6-yl)-4-(dimethylamino)butanamide]
IC50 [1, 3]: 1000 to 10000 nM

CCOc1cc2ncc(C#N)c(Nc3ccc(OCc4cocn4)c(Cl)c3)c2cc1NC(=O)CCCN(C)C [Example 69]
IC50 [1, 3]: 100 to 1000 nM

CCOc1cc2ncc(C#N)c(Nc3ccc(OCc4cccc(C(F)(F)F)n4)c(Cl)c3)c2cc1NC(=O)CCCN(C)C [Example 54]
IC50 [1, 3]: 100 to 1000 nM

CCOc1cc2ncc(C#N)c(Nc3ccc(OCc4ccccn4)c(Cl)c3)c2cc1NC(=O)CCCN1CCN(C)CC1 [Example 98]
IC50 [1, 3]: < 100 nM

CCOc1cc2ncc(C#N)c(Nc3ccc(OCc4ccc5c(n4)OCCC5)c(Cl)c3)c2cc1NC(=O)CCCN(C)C [Example 59]
IC50 [1, 3]: 1000 to 10000 nM

CCOc1cc2ncc(C#N)c(Nc3ccc(OCc4ccccn4)cc3)c2cc1NC(=O)CCCN(C)C [Example 47]
IC50 [1, 3]: 100 to 1000 nM

CCOc1cc2ncc(C#N)c(Nc3ccc(OCc4ccncc4)c(Cl)c3)c2cc1NC(=O)CCCN(C)C [Example 50]
IC50 [1, 3]: 1000 to 10000 nM

CCOc1cc2ncc(C#N)c(Nc3ccc(OCc4cc(-c5ccc(C)cc5)on4)c(Cl)c3)c2cc1NC(=O)CCCN(C)C [Example 73]
IC50 [1, 3]: 100 to 1000 nM

CCOc1cc2ncc(C#N)c(Nc3cccc(S(C)(=O)=O)c3)c2cc1NC(C)=O [Example 134]
IC50 [1, 3]: 1000 to 10000 nM

CCOc1cc2ncc(C#N)c(Nc3ccc(OCc4ccc(OC)cn4)c(Cl)c3)c2cc1NC(=O)CCCN(C)C [Example 56]
IC50 [1, 3]: 100 to 1000 nM

CCOc1cc2ncc(C#N)c(Nc3ccccc3)c2cc1NC(C)=O [Example 115, N-(3-cyano-7-ethoxy-4-(phenylamino)quinolin-6-yl)acetamide]
IC50 [1, 3]: 1000 to 10000 nM

CCOc1cc2ncc(C#N)c(Nc3ccc(OC)c(Cl)c3)c2cc1NC(C)=O [Example 136]
IC50 [1, 3]: 100 to 1000 nM

CCOc1cc2ncc(C#N)c(Nc3ccc(OCc4ccc(C(F)(F)F)cn4)c(Cl)c3)c2cc1NC(=O)CCCN(C)C [Example 53]
IC50 [1, 3]: 100 to 1000 nM

CCOc1cc2ncc(C#N)c(Nc3ccc(OCc4cccnc4)c(Cl)c3)c2cc1NC(=O)CCCN(C)C [Example 49]
IC50 [1, 3]: 1000 to 10000 nM

CCOc1cc2ncc(C#N)c(Nc3ccc(NC(=O)c4ccccc4)c(Cl)c3)c2cc1NC(=O)CCCN(C)C [Example 109, N-(2-chloro-4-(3-cyano-6-(4-(dimethylamino)butanamido)-7-ethoxyquinolin-4-ylamino)phenyl)benzamide]
IC50 [1, 3]: 100 to 1000 nM

CCOc1cc2ncc(C#N)c(Nc3ccc(OCc4ccc(C(=O)OC)cn4)c(Cl)c3)c2cc1NC(=O)CCCN(C)C [Example 58]
IC50 [1, 3]: 100 to 1000 nM

CCOc1cc2ncc(C#N)c(Nc3ccc(OCc4cnc(C)cn4)c(Cl)c3)c2cc1NC(=O)CCCN(C)C [Example 60]
IC50 [1, 3]: 100 to 1000 nM

CCOc1cc2ncc(C#N)c(Nc3ccc(C#N)cc3)c2cc1NC(C)=O [Example 129]
IC50 [1, 3]: 1000 to 10000 nM

CCOc1cc2ncc(C#N)c(Nc3cccc(C)c3)c2cc1NC(C)=O [Example 130]
IC50 [1, 3]: 1000 to 10000 nM

CCOc1cc2ncc(C#N)c(Nc3ccc(NC(C)c4ccccc4)c(Cl)c3)c2cc1NC(=O)CCCN(C)C (stereo not drawn) [Example 114]
IC50 [1, 3]: 1000 to 10000 nM

CCOc1cc2ncc(C#N)c(Nc3ccc(OCc4cccnn4)c(Cl)c3)c2cc1NC(=O)CCCN(C)C [Example 68]
IC50 [1, 3]: 100 to 1000 nM

CCOc1ccc(COc2ccc(Nc3c(C#N)cnc4cc(OCC)c(NC(=O)CCCN(C)C)cc34)cc2Cl)nc1 [Example 57]
IC50 [1, 3]: 100 to 1000 nM

CCOc1cc2ncc(C#N)c(Nc3ccc(OCc4ccccn4)c(C)c3)c2cc1NC(=O)CCCN(C)C [Example 48]
IC50 [1, 3]: 100 to 1000 nM

CCOc1cc2ncc(C#N)c(Nc3cccc(OC)c3)c2cc1NC(C)=O [Example 131]
IC50 [1, 3]: 100 to 1000 nM

CCOc1cc2ncc(C#N)c(Nc3ccc(OCc4cnc5cccnc5c4)c(Cl)c3)c2cc1NC(=O)CCCN(C)C [Example 63]
IC50 [1, 3]: 100 to 1000 nM

CCOc1cc2ncc(C#N)c(Nc3ccc(NC(C)(C)c4ccccn4)c(Cl)c3)c2cc1NC(=O)CCCN(C)C [Example 113]
IC50 [1, 3]: 1000 to 10000 nM

CCOc1cc2ncc(C#N)c(Nc3ccc(OCc4ncccc4-c4ccccc4)c(Cl)c3)c2cc1NC(=O)CCCN(C)C [Example 72]
IC50 [1, 3]: 100 to 1000 nM

CCOc1cc2ncc(C#N)c(Nc3ccc(OCc4nc(C(C)C)no4)c(Cl)c3)c2cc1NC(=O)CCCN(C)C [Example 70]
IC50 [1, 3]: 100 to 1000 nM

CCOc1cc2ncc(C#N)c(Nc3ccc(OCc4cc(C(F)(F)F)ccn4)c(Cl)c3)c2cc1NC(=O)CCCN(C)C [Example 55]
IC50 [1, 3]: 100 to 1000 nM

CCOc1cc2ncc(C#N)c(Nc3ccc(OCCn4ccc(C)n4)c(Cl)c3)c2cc1NC(=O)CCCN(C)C [Example 64]
IC50 [1, 3]: 100 to 1000 nM

CCOc1cc2ncc(C#N)c(Nc3ccc(C)cc3)c2cc1NC(C)=O [Example 120]
IC50 [1, 3]: 100 to 1000 nM

CCOc1cc2ncc(C#N)c(Nc3ccc(OCc4cc5ncccc5o4)c(Cl)c3)c2cc1NC(=O)CCCN(C)C [Example 71]
IC50 [1, 3]: 100 to 1000 nM

CCOc1cc2ncc(C#N)c(N(C)c3ccccc3)c2cc1NC(C)=O [Example 116]
IC50 [1, 3]: 1000 to 10000 nM

CCOc1cc2ncc(C#N)c(Nc3ccc(OCc4ccccn4)c(Cl)c3)c2cc1NC(=O)CC [Example 101]
IC50 [1, 3]: 1000 to 10000 nM
